# Assay results reported in PubChem BioAssay AID1996.
# Settings: buffer; pH 7.4; 200.0 µM
row,SMILES,solubility kinetic [mg/mL]
1,CC(=O)c1cccc(NC(=O)N2CC(C)OC(C)C2)c1 (stereo not given),> 0.0415
2,Cc1nc2ccc(NC(=S)NC3CCCCC3)cc2nc1C,> 0.0472
3,COc1ccc(CNC(=O)N2CCc3ccccc3C2)cc1,> 0.0445
4,CCCCCCC(=O)N(O)C1CC(=O)N(c2ccc(F)cc2)C1=O (stereo not given),> 0.0505
5,COc1ccc(C(=O)Nc2ccccc2C(=O)N2CCOCC2)cc1OC,0.0467
6,CC(SCc1cc(=O)n2c([nH]c3ccccc32)c1C#N)C(=O)O (stereo not given),0.0217
7,Cc1cc(=O)[nH]c(SCc2ccccc2)n1,> 0.0348
8,COc1ccc(C(C)NC(=O)c2ccncc2)cc1OC (stereo not given),> 0.0429
9,CC(C)c1ccc(/C=C2\SC(N3CCOCC3)=NC2=O)cc1,0.0299
10,Cc1c(NS(=O)(=O)c2ccc(N)cc2)c(=O)n(-c2ccccc2)n1C,> 0.0538
11,COc1ccc(OC)c(NC(=O)CC2(CC(=O)O)CCCC2)c1,> 0.0482
12,Cc1ccc(SCCSc2nc(N)cc(=O)[nH]2)cc1,0.0067
13,COc1ccc(CCCC(=O)NCCc2ccccc2)cc1,0.0352
14,Cc1ccsc1C(=O)NCc1ccc(Cl)cc1,0.0018
15,O=C(Cc1cccc2ccccc12)Nc1c(F)cccc1F,0.0012
16,CC1CN(C(=O)CS(=O)(=O)Cc2ccc(Cl)cc2)CC(C)O1 (stereo not given),0.0468
17,COc1ccc(C(=O)C2CCCN(S(=O)(=O)C(C)C)C2)c(C)c1 (stereo not given),0.0454
18,CN1C(=O)CN=C(c2ccc(Cl)cc2)c2cc(Cl)ccc21,> 0.0479
19,CCN1/C(=C\C(=S)Nc2ccccc2)Sc2ccccc21,0.0207
20,CN(C(=O)c1cc(-c2ccc3c(c2)OCO3)on1)c1ccccc1,0.0068
21,CCCC(=O)Nc1nnc(SCC(=O)NC2CC2)s1,> 0.0451
22,O=C(NCc1ccc(F)cc1)c1ccc(Br)o1,0.0379
23,O=C(Nc1cc2c(cc1Br)OCCO2)c1ccc(=O)[nH]c1,> 0.0527
24,Cc1[nH]c2ccc(C(=O)NCCCN3CCCC3)cc2c1C,> 0.0449

row,SMILES,solubility kinetic [mg/mL]
1,CC(C)=CC(=O)OCC(=O)Nc1cc(C)cc(C)c1,0.0037
2,Cc1ccc(/C=C/C(=O)NN2CCN(C)CC2)cc1,> 0.0389
3,CCOc1nc(Nc2ccccc2)nc(OCC)n1,0.038
4,Cc1ncc(CN2CCN(C3CCCC3)C(CCO)C2)s1 (stereo not given),0.036
5,O=S(=O)(Nc1ccncc1)c1cc(Cl)ccc1Cl,0.0212
6,Cc1cc(C)c2c(N)c(C(=O)Nc3cccc(C)c3C)sc2n1,0.0012
7,CCC1(C)SC(N)=NN1C(C)=O (stereo not given),> 0.0281
8,Cc1ccc(NS(=O)(=O)c2ccc(NC(=O)c3ccccc3C(=O)O)cc2)cc1C,> 0.0637
9,Cc1ccc(C2C(=O)NC(=O)NC2=O)cc1,0.0277
10,CC(C)(C)C(=O)N1CCN(C(=O)c2ccco2)CC1,> 0.0396
11,Cc1ccc(S(=O)(=O)/N=C2\C=C(Nc3ccc(O)cc3)C(=O)c3ccccc32)cc1,0.0009
12,O=C(COc1ccc2cc(Br)ccc2c1)N1CCOCC1,> 0.0525
13,CCN(Cc1nc(-c2ccc(OC)cc2)no1)C(=O)c1ccoc1C,0.0411
14,Cc1cc(C)c(C)c(OCC(=O)O/N=C(\N)c2ccncc2)c1,0.0285
15,C=CCSc1nc2sc3c(c2c(=O)n1CC)CCC3,0.0008
16,COC(=O)C(O)(c1ccc(NC(=O)c2ccccc2)cc1)C(F)(F)F (stereo not given),0.0429
17,Cc1onc(-c2ccccc2)c1-c1ccnc(N)n1,0.0338
18,CCOCCn1c(N2CCCC2)nc2c1c(=O)[nH]c(=O)n2C,0.0452
19,COc1cc(C(=O)COC(=O)c2ccncc2)cc(OC)c1OC,> 0.0497
20,CCN(Cc1ccccc1)C1CCN(Cc2ccccc2)CC1,0.0342
21,COc1ccc(C(=O)Nc2nc3ccccc3s2)cc1,< 0.0003
22,COc1ccccc1/C=C/C(=O)OCC(=O)Nc1ccc2c(c1)OCO2,0.0033
23,COc1cccc(/C=C2\NC(=O)NC2=O)c1O,0.0326
24,CCN1CC(CN(C)Cc2nc(-c3ccco3)oc2C)CC1=O (stereo not given),> 0.0476

row,SMILES,solubility kinetic [mg/mL]
1,CC(NC(=O)c1cc2ccccc2oc1=O)c1ccccc1 (stereo not given),0.0038
2,O=C(Nc1ccc(S(=O)(=O)Nc2nccs2)cc1)C(F)(F)F,> 0.0527
3,O=C(Nc1cccc(S(=O)(=O)N2CCOCC2)c1)C1CC1,> 0.0466
4,CC1(C)CC(c2nc(-c3ccc([N+](=O)[O-])cc3)cs2)CCO1 (stereo not given),0.0193
5,O=C(CN1CCN(c2cccc(Cl)c2)CC1)NCc1ccccc1,0.0425
6,O=C(CN1CCOCC1)Nc1ccccc1C(=O)Nc1ccccc1,0.0391
7,CCOC(=O)Cc1csc(NC(=O)c2c(C)noc2C)n1,> 0.0464
8,Nc1cc(N)nc(SCC(=O)Nc2ccccc2N2CCOCC2)n1,0.0496
9,Nc1nc(F)cc(NCc2ccccc2)n1,> 0.0327
10,CC(C)NC(NC(=O)/C=C/c1ccccc1)C(Cl)(Cl)Cl (stereo not given),0.0447
11,O=C(COC(=O)c1ccc[nH]c1=O)Nc1ccc2c(c1)OC(F)(F)O2,> 0.0528
12,Cc1[nH]c(=S)c(C#N)c(-c2ccco2)c1C(=O)N(C)C,> 0.0431
13,Cc1cccc(CN2CCN(C(=S)Nc3ccccc3)CC2)c1,> 0.0488
14,CCN1CCN(c2oc(-c3ccco3)nc2C#N)CC1,0.0359
15,COC(=O)c1c(C)[nH]c(C(=O)/C=C/c2ccccc2F)c1C,0.0008
16,O=C(CSc1ccccc1)NCCCc1ccccc1,> 0.0428
17,O=C1NC(c2ccc(Cl)cc2)=COc2ccccc21,0.0011
18,CC(C)c1nc2sc3c(=O)[nH]cnc3c2c2c1CCCC2,< 0.0002
19,O=C(CN1C(=O)NC(c2ccccc2)(c2ccccc2)C1=O)Nc1ccc(N2CCOCC2)cc1,0.0026
20,O=C(O)c1cccc(NC(=S)NC(=O)c2cncc(Br)c2)c1,> 0.057
21,O=C(NCC(=O)N1CCCC1)c1ccc(Br)cc1,> 0.0467
22,CC(C)(C)c1ccc(/C=C2\SC(=O)N=C2N)cc1,< 0.0003
23,CCC(C(=O)OCC(=O)NCc1ccc2c(c1)OCO2)c1ccccc1 (stereo not given),0.046
24,O=C(c1ccccc1)N1CCN(CCc2ccccc2)CC1,0.0407

row,SMILES,solubility kinetic [mg/mL]
1,CCc1ccc(/C=C(\C#N)C(=O)NC2CCS(=O)(=O)C2)cc1 (stereo not given),0.0078
2,OCCc1c[nH]c2ccc(OCc3ccccc3)cc12,0.0248
3,Nc1cc(S(=O)(=O)N2CCCCC2)ccc1Oc1ccccc1,0.0108
4,Cc1cc(NCc2cccnc2)no1,0.028
5,Clc1ccc(N2CC2c2ccncc2)cc1 (stereo not given),0.0326
6,Cl.O=C(O)CC1(CC(=O)N2CCN(CCO)CC2)CCCC1,> 0.0502
7,CCN(CC(=O)N1CCCC1)S(=O)(=O)c1ccc(F)cc1,0.0441
8,CNCc1cc(Cl)cc(OC)c1OC(C)C.Cl,> 0.042
9,Cn1cc([N+](=O)[O-])c(C(=O)N/N=C/c2ccncc2)n1,> 0.0411
10,CCOc1ncccc1C(=O)OCC(=O)N1CCC(C)CC1,> 0.046
11,O=C(Nc1ccon1)Nc1ccc(F)cc1F,> 0.0359
12,O=C(O)CCC(=O)NCc1c(Cl)cccc1Sc1ccc(Cl)cc1,0.0383
13,Cc1ccc(NC(=O)COC(=O)CNC(=O)c2ccco2)cc1,0.0447
14,O=C(CN1C(=O)NC2(CCCCCC2)C1=O)Nc1ccccc1[N+](=O)[O-],0.0073
15,C=C(C)c1cccc(C(C)(C)NC(=O)Nc2cccnc2)c1,0.0094
16,Cc1ccc2[nH]c3c(c2c1)CCN(C)C3,> 0.03
17,CCN1CCN(CCC(=O)Nc2ccc(C)cc2)CC1.Cl,> 0.0468
18,C=C(C)C(=O)Oc1ccc(N2C(=O)CCC2=O)cc1,> 0.0389
19,COc1ccc(CCNC(=O)[C@@H](NC(N)=O)C(C)C)cc1,> 0.044
20,Cc1cc(C(=O)Nc2cc(C(C)(C)C)on2)c(C)o1,0.0038
21,C=CCN1CCN(C(=O)c2cc3c(s2)CCC(CC)C3)CC1 (stereo not given),0.0463
22,N/C(=N\O)c1ccc(N2CCN(c3ncccc3C(F)(F)F)CC2)nc1,0.0517
23,COc1cc(Cl)c(C)cc1NC(=O)CN1C(=O)C2CC=CCC2C1=O (stereo not given),> 0.0544
24,N#Cc1c(-c2ccccc2)oc(=O)c2ccccc12,0.0012

row,SMILES,solubility kinetic [mg/mL]
1,CN(C(=O)Cn1cc([N+](=O)[O-])ccc1=O)C1CCCCC1,0.0417
2,CN1C(=O)c2cccc3c(S(=O)(=O)NCCc4ccccc4)ccc1c23,< 0.0004
3,CCc1ccccc1NS(=O)(=O)c1cccc2nsnc12,0.0448
4,COC(=O)c1c(C)oc(C)c1S(=O)(=O)NCc1ccc(OC)cc1,> 0.053
5,Cc1cc(C)nc(Nc2ccccc2Cl)n1.Cl,0.0104
6,COC(=O)C(Cc1ccc(O)cc1)NC(=O)CCc1ccco1 (stereo not given),0.0465
7,CCCC(=O)Nc1ccc(-c2nc3ncccc3o2)cc1,0.0021
8,COc1ccccc1C(=O)Nc1sc2c(c1C(N)=O)CCCC2,< 0.0004
9,Cc1c(C(=O)NCc2ccccc2F)oc2ccccc12,0.0015
10,O=C(O)c1ccc(-c2cccc([N+](=O)[O-])c2)o1,> 0.035
11,CC(=O)Nc1ccc(NC(=O)CCOc2cc(C)ccc2C)cc1,0.002
12,Cc1ccc(/C=C2\SC(=S)N(c3cccnc3)C2=O)cc1,< 0.0003
13,O=c1c2ccccc2nc(/C=C/c2ccccn2)n1-c1ccccc1,0.0006
14,CC1(C)CC(=O)C=C(N2CCOCC2)C1,> 0.0314
15,CSCC[C@H](NC(=O)c1ccc(OCC2CCCO2)cc1)c1nc2ccccc2[nH]1 (stereo not given in full),0.0569
16,Cc1cc(SCC(=O)NC2CCCC2)nc2ccccc12,0.0088
17,COc1ccc(NC(=O)c2cnc(SC)nc2C)c(OC)c1,> 0.0479
18,CC(C)N(Cc1ccccc1)C(=O)COC(=O)c1c(F)cccc1F,> 0.0521
19,COc1ccc(OC)c(NC2=NCCS2)c1,> 0.0357
20,O=C(Nc1cccc(S(=O)(=O)N2CCCCC2)c1)c1cc(=O)[nH]c2ccccc12,0.0092
21,O=C1NCC(NC(=O)C(F)(F)F)c2cc3c(cc21)OCO3 (stereo not given),> 0.0453
22,CC(=O)c1c(C)nc(Nc2nc3ccccc3s2)nc1C,0.0002
23,Cc1ccc(NC(=O)NCc2cccnc2)cc1C,0.0382
24,N#CCOC(=O)[C@H](Cc1ccccc1)N1C(=O)c2ccccc2C1=O,0.0473
